Assays:
Aβ = settings: cited from earlier work
[1] = target: amyloid β (Aβ) in cerebral organoids (Homo sapiens, UniProt P05067); experiment: Aβ aggregation/deposition suppression in cerebral organoids (QD-Aβ40/Aβ42, fluorescence microscopy); format: cell-based; settings: Example 3, 24 hours after addition
Procedure: The end of a 1000-μl tip was cut off with sterilized scissors, and the organoids produced in Example 1 that had grown to a diameter of 1 mm or more were aspirated without disrupting them, and transferred to a U-bottom 96-well plate. […]
The next day, all of the culture supernatant was removed without aspirating the organoid, and 150 μl of fresh NbM medium was added. The cultured organoids were then observed and photographed under a fluorescence microscope.
Using a fluorescence microscope (BZ-X800 manufactured by KEYENCE CORPORATION), the cultured organoids in Example 2 were photographed in a bright field at a high resolution with an exposure time of 1/500 s to 1/2000 s, or at a high sensitivity with an exposure time of 1/2000 s to 1/5000 s, with Z stacks with a pitch of 20 μm. […] Subsequently, to observe the deposition of quantum dot-modified amyloid β in the cultured organoid, red fluorescence was observed using a TRITC lens at a high sensitivity with an exposure time of ¼ s to 1/8.5 s, and images were obtained according to the procedure described above.
Each of the images obtained above was analyzed as follows. […] The threshold of the loaded bright-field image was set to 200, and the organoid area (organoid surface area) was calculated. […]
The black balance level of image processing was adjusted for the fluorescent images of various tests. First, the negative control image was read out. […]

Chain of amyloid β (Aβ) in cerebral organoids (P05067 672-713): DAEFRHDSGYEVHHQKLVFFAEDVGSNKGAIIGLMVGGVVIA

Structure (SMILES): O=C(/C=C/c1ccc(O)c(O)c1)O[C@H](Cc1ccc(O)c(O)c1)C(=O)O [rosmarinic acid, Rosmarinic acid]
- effect of suppressing Aβ aggregation (known) (Aβ): known to have an effect of suppressing Aβ aggregation
- Effect of suppressing Aβ aggregation/deposition in cerebral organoids (in words) [1]: not a drug that has an effect of suppressing Aβ aggregation/deposition in cerebral organoids
- Aβ aggregation/deposition suppression rate in cerebral organoids ([1]; rosmarinic acid final 50 μM, QD-Aβ40 30 nM, Aβ42 10 μM): 3.9%
